Assay results published in the NIST ThermoML archive (doi:10.1016/j.jct.2012.05.012).
± gives the expanded uncertainty stated by the source.

Key:
[1] = for mass density: 101 kPa, Buoyancy - hydrostatic balance; for mass density / surface tension liquid-gas: Liquid; for surface tension liquid-gas: Maximal bubble pressure
[2] = refractive index (Na D-line) (dimensionless); conditions: 101 kPa, Liquid, Standard Abbe refractometry

Q: Which mass density ([1]; 283.15 K) does the source give for `CCCCn1cc[n+](C)c1.NCC(=O)[O-]` [1-butyl-3-methylimidazolium glycinate] here?
A: Its mass density is 1120.6 ± 0.5 kg/m3.

Q: And the surface tension liquid-gas ([1]; 283.15 K)?
A: The surface tension liquid-gas was 44.3 ± 0.4 mN/m.

Q: And the mass density ([1]; 288.15 K)?
A: Its mass density is 1117.4 ± 0.5 kg/m3.

Q: What about the surface tension liquid-gas ([1]; 288.15 K) of the same molecule?
A: The surface tension liquid-gas was 44 ± 0.4 mN/m.

Q: What about the mass density ([1]; 293.15 K) of the same molecule?
A: The mass density was 1114.2 ± 0.5 kg/m3.

Q: What about the surface tension liquid-gas ([1]; 293.15 K) of the same molecule?
A: The surface tension liquid-gas was 43.8 ± 0.4 mN/m.

Q: And the mass density ([1]; 298.15 K)?
A: Its mass density is 1110.9 ± 0.5 kg/m3.

Q: What about the surface tension liquid-gas ([1]; 298.15 K) of the same molecule?
A: The surface tension liquid-gas was 43.5 ± 0.4 mN/m.

Q: And the mass density ([1]; 303.15 K)?
A: The mass density was 1107.8 ± 0.5 kg/m3.

Q: And the surface tension liquid-gas ([1]; 303.15 K)?
A: Its surface tension liquid-gas is 43.2 ± 0.4 mN/m.

Q: And the mass density ([1]; 308.15 K)?
A: The mass density was 1104.7 ± 0.5 kg/m3.

Q: What about the surface tension liquid-gas ([1]; 308.15 K) of the same molecule?
A: Its surface tension liquid-gas is 42.9 ± 0.4 mN/m.

Q: And the mass density ([1]; 313.15 K)?
A: The mass density was 1101.6 ± 0.5 kg/m3.

Q: And the surface tension liquid-gas ([1]; 313.15 K)?
A: Its surface tension liquid-gas is 42.6 ± 0.4 mN/m.

Q: What about the mass density ([1]; 318.15 K) of the same molecule?
A: The mass density was 1098.6 ± 0.5 kg/m3.

Q: And the surface tension liquid-gas ([1]; 318.15 K)?
A: Its surface tension liquid-gas is 42.2 ± 0.4 mN/m.

Q: What about the mass density ([1]; 323.15 K) of the same molecule?
A: Its mass density is 1095.5 ± 0.5 kg/m3.

Q: And the surface tension liquid-gas ([1]; 323.15 K)?
A: The surface tension liquid-gas was 41.8 ± 0.4 mN/m.

Q: What about the mass density ([1]; 328.15 K) of the same molecule?
A: Its mass density is 1092.3 ± 0.5 kg/m3.

Q: And the surface tension liquid-gas ([1]; 328.15 K)?
A: The surface tension liquid-gas was 41.5 ± 0.4 mN/m.

Q: What about the Glass transition temperature ([1]; Glass, DTA) of the same molecule?
A: The Glass transition temperature was -81.80 ± 4 °C.

Q: And the refractive index ([2]; 293.15 K)?
A: Its refractive index is 1.5091 ± 0.0004.

Q: And the refractive index ([2]; 298.15 K)?
A: The refractive index was 1.5085 ± 0.0004.

Q: And the refractive index ([2]; 303.15 K)?
A: The refractive index was 1.5068 ± 0.0004.

Q: And the refractive index ([2]; 308.15 K)?
A: The refractive index was 1.5049 ± 0.0004.

Q: And the refractive index ([2]; 313.15 K)?
A: The refractive index was 1.5038 ± 0.0004.

Q: What about the refractive index ([2]; 318.15 K) of the same molecule?
A: Its refractive index is 1.5029 ± 0.0004.

Q: What about the refractive index ([2]; 323.15 K) of the same molecule?
A: The refractive index was 1.5019 ± 0.0004.
